Test results taken from patent US7683168B2, “Compositions of novel opioid compounds and method of use thereof” (priority 2005, dated 2010).

Key:
human mu opioid receptor = molecular target: T1, human mu opioid receptor (Homo sapiens, UniProt P35372); test: radioligand binding, human mu opioid receptor, CHO cell membranes; settings: species not given, read-out: μ
T1 construct: purchased Perkin Elmer, Boston, Mass; 6110535; host or cells: CHO cells

[1] = test system: seizure-like convulsions in mice; test: mouse seizure-like convulsions; assay type: in vivo; settings: 10 mg/kg IV
Description: Mouse Seizure-Like Convulsions and antinociception: The central (CNS) effects of the compound were tested with central delta receptor mediated seizure-like convulsions and central mu opioid receptor mediated antinociceptive effects in mice. Male CD-1 mice (Charles River, Raleigh, N.C.) weighing 20-25 g were used to determine the seizure-like convulsion and antinociception activities for compounds.
They were then observed for seizure-like convulsions for one hour following the treatment. A seizure-like event was recorded if a mouse had uncontrollable clonic (or tonic/clonic) muscle movements that encompassed its entire body, usually followed by a brief cataleptic period. Catalepsy was determined by placing the animal's front paws on a horizontal bar held 2-3 inches from the cage floor. Cataleptic animals made no attempt to remove their paws.

mouse vas deferens = test: electrically stimulated mouse vas deferens (MVD) ED50; assay type: cell-based; settings: ED50, inhibition of electrically induced contractions
human delta receptor = molecular target: T2, human delta receptor (Homo sapiens, UniProt P41143); test: radioligand binding, human delta receptor, HEK-293 cell membranes; settings: cell not marked (rat), species not given, read-out: δ
T2 construct: purchased Perkin Elmer, Boston, Mass; 6110549; host or cells: HEK-293 cells
T2 sequence (P41143 whole entry): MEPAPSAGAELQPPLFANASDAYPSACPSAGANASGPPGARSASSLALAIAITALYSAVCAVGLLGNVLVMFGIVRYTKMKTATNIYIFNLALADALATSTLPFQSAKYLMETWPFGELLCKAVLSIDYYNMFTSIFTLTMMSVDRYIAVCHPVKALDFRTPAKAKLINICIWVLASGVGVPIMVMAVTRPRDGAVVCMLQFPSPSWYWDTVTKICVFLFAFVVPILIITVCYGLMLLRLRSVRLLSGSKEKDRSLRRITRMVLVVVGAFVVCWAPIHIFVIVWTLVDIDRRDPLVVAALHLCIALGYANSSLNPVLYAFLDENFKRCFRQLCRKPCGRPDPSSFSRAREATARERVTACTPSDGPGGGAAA

T1 sequence (P35372 whole entry): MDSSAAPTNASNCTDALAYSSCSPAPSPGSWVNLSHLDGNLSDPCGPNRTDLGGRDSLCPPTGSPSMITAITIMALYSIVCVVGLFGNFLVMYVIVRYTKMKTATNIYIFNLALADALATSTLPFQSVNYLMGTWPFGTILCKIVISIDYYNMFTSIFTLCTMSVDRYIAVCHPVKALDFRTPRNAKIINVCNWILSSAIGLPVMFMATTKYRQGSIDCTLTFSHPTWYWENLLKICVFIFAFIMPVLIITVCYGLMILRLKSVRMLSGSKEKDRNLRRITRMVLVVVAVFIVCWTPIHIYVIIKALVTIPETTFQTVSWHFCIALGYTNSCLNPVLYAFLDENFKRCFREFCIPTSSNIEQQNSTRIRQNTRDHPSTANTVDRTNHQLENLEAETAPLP

| SMILES | Ki (human mu opioid receptor) | Seiz. [1] | EC50 (mouse vas deferens) | Ki (human delta receptor) |
| --- | --- | --- | --- | --- |
| C=CCN1C[C@H](C)N([C@@H](c2cccc(O)c2)c2cccc(C(=O)N3CCN(CC(=O)OCC)CC3)c2)C[C@H]1C [Example 63, (4-{3-[(R)-((2S,5R)-4-Allyl-2,5-dimethyl-piperazin-1-yl)-(3-hydroxy-phenyl)-methyl]-benzoyl}-piperazin-1-yl)-acetic acid ethyl ester] | 0.47 nM | 20% 10 mg/kg IV | 7.71 nM | 0.44 nM |
| C=CCN1C[C@H](C)N([C@@H](c2cccc(O)c2)c2cccc(C(=O)N3CCN(CC(=O)O)CC3)c2)C[C@H]1C [Example 64, (4-{3-[(R)-((2S,5R)-4-Allyl-2,5-dimethyl-piperazin-1-yl)-(3-hydroxy-phenyl)-methyl]-benzoyl}-piperazin-1-yl)-acetic acid] | 9 nM | 30% 10 mg/kg IV | 5.18 nM | 0.79 nM |
| C=CCN1C[C@H](C)N([C@@H](c2cccc(O)c2)c2cccc(C(=O)N3CCN(CCC(=O)OCC)CC3)c2)C[C@H]1C [Example 72, 3-(4-{3-[(R)-((2S,5R)-4-Allyl-2,5-dimethyl-piperazin-1-yl)-(3-hydroxy-phenyl)-methyl]-benzoyl}-piperazin-1-yl)-propionic acid ethyl ester] | 2.4 nM | 20% 10 mg/kg IV | 8.03 nM | 0.61 nM |
| C=CCN1C[C@H](C)N([C@@H](c2cccc(O)c2)c2cccc(C(=O)N3CCN(CCC(=O)O)CC3)c2)C[C@H]1C [Example 73, 3-(4-{3-[(R)-((2S,5R)-4-Allyl-2,5-dimethyl-piperazin-1-yl)-(3-hydroxy-phenyl)-methyl]-benzoyl}-piperazin-1-yl)-propionic acid] | 17.1 nM | 0% 10 mg/kg IV | 2.28 nM | 2.6 nM |
| C=CCN1C[C@H](C)N([C@@H](c2cccc(O)c2)c2cccc(C(=O)N3CCN(CCCC(=O)OCC)CC3)c2)C[C@H]1C [Example 74, (4-{3-[(R)-((2S,5R)-4-Allyl-2,5-dimethyl-piperazin-1-yl)-(3-hydroxy-phenyl)-methyl]-benzoyl}-piperazin-1-yl)-butyric acid ethyl ester] | 1.95 nM | 10% 10 mg/kg IV | 23.3 nM | 123 nM |
| C[C@@H]1CN([C@@H](c2cccc(O)c2)c2cccc(C(=O)N3CCN(CCCC(=O)O)CC3)c2)[C@@H](C)CN1CC1CC1 [Example 78, 4-(4-{3-[(R)-((2S,5R)-4-Cyclopropylmethyl-2,5-dimethyl-piperazin-1-yl)-(3-hydroxy-phenyl)-methyl]-benzoyl}-piperazin-1-yl)-butyric acid] | 194 nM | 0% 10 mg/kg IV | 26.6 nM | 10.2 nM |
| CCOC(=O)CCCN1CCN(C(=O)c2cccc([C@H](c3cccc(O)c3)N3C[C@@H](C)N(Cc4ccccc4)C[C@@H]3C)c2)CC1 [Example 79, 4-(4-{3-[(R)-((2S,5R)-4-Benzyl-2,5-dimethyl-piperazin-1-yl)-(3-hydroxy-phenyl)-methyl]-benzoyl}-piperazin-1-yl)-butyric acid ethyl ester] | 1.3 nM | 80% 10 mg/kg IV | 3.95 nM | 3.7 nM |
| C[C@@H]1CN([C@@H](c2cccc(O)c2)c2cccc(C(=O)N3CCN(CCCC(=O)O)CC3)c2)[C@@H](C)CN1Cc1cccc(F)c1 [Example 82, 4-(4-{3-[(R)-((2S,5R)-4-(3-Fluorobenzyl)-2,5-dimethyl-piperazin-1-yl)-(3-hydroxy-phenyl)-methyl]-benzoyl}-piperazin-1-yl)-butyric acid] | 13.8 nM | 0% 10 mg/kg IV | 2.65 nM | 31.1 nM |
| C=CCN1C[C@H](C)N([C@@H](c2cccc(O)c2)c2cccc(C(=O)N3CCN(CCCCC(=O)OCC)CC3)c2)C[C@H]1C [Example 83, 5-(4-{3-[(R)-((2S,5R)-4-Allyl-2,5-dimethyl-piperazin-1-yl)-(3-hydroxy-phenyl)-methyl]-benzoyl}-piperazin-1-yl)-pentanoic acid ethyl ester] | 8.9 nM | 30% 10 mg/kg IV | 11.8 nM | 10.7 nM |
| CCOC(=O)CCCCN1CCN(C(=O)c2cccc([C@H](c3cccc(O)c3)N3C[C@@H](C)N(Cc4ccccc4)C[C@@H]3C)c2)CC1 [Example 86, 5-(4-{3-[(R)-[(2S,5R)-4-Benzyl-2,5-dimethyl-piperazin-1-yl]-(3-hydroxy-phenyl)-methyl]-benzoyl}-piperazin-1-yl)-pentanoic acid ethyl ester] | 9.1 nM | 60% 10 mg/kg IV | 12.6 nM | 3.1 nM |
| C[C@@H]1CN([C@@H](c2cccc(O)c2)c2cccc(C(=O)N3CCN(CCCCC(=O)O)CC3)c2)[C@@H](C)CN1Cc1cccc(F)c1 [Example 88, 5-(4-{3-[(R)-((2S,5R)-4-(3-Fluorobenzyl)-2,5-dimethyl-piperazin-1-yl)-(3-hydroxy-phenyl)-methyl]-benzoyl}-piperazin-1-yl)-pentanoic acid] | 211 nM | 0% 10 mg/kg IV | 6.66 nM | 16.9 nM |
| C=CCN1C[C@H](C)N([C@@H](c2cccc(O)c2)c2cccc(C(=O)N3CCN(Cc4ccc(C(=O)OC)cc4)CC3)c2)C[C@H]1C [Example 91, 4-(4-{3-[(R)-((2S,5R)-4-Allyl-2,5-dimethyl-piperazin-1-yl)-(3-hydroxy-phenyl)-methyl]-benzoyl}-piperazin-1-ylmethyl)-benzoic acid methyl ester] | 6.5 nM | 70% 10 mg/kg IV | 23.1 nM | 2.7 nM |
| C=CCN1C[C@H](C)N([C@@H](c2cccc(O)c2)c2cccc(C(=O)N3CCN(CCCCCC(=O)O)CC3)c2)C[C@H]1C [Example 94, 6-(4-{3-[(R)-((2S,5R)-4-Allyl-2,5-dimethyl-piperazin-1-yl)-(3-hydroxy-phenyl)-methyl]-benzoyl}-piperazin-1-yl)-hexanoic acid] | 64.3 nM | 0% 10 mg/kg IV | 6.07 nM | 2.5 nM |
| CCOC(=O)CCCCCN1CCN(C(=O)c2cccc([C@H](c3cccc(O)c3)N3C[C@@H](C)N(Cc4ccccc4)C[C@@H]3C)c2)CC1 [Example 96, 6-(4-{3-[(R)-((2S,5R)-4-Benzyl-2,5-dimethyl-piperazin-1-yl)-(3-hydroxy-phenyl)-methyl]-benzoyl}-piperazin-1-yl)-hexanoic acid ethyl ester] | 2 nM | 60% 10 mg/kg IV | 10.4 nM | 6.9 nM |
| C[C@@H]1CN([C@@H](c2cccc(O)c2)c2cccc(C(=O)N3CCN(CCCCCCC(=O)O)CC3)c2)[C@@H](C)CN1Cc1ccccc1 [Example 111, 7-(4-{3-[(R)-((2S,5R)-4-Benzyl-2,5-dimethyl-piperazin-1-yl)-(3-hydroxy-phenyl)-methyl]-benzoyl}-piperazin-1-yl)-heptanoic acid] | 8.7 nM | 0% 10 mg/kg IV | 3.82 nM | 0.77 nM |
| C=CCN1C[C@H](C)N([C@@H](c2cccc(O)c2)c2cccc(C(=O)N3CCC(=CC(=O)O)CC3)c2)C[C@H]1C [Example 138, (1-{3-[(R)-((2S,5R)-4-allyl-2,5-dimethyl-1-piperazinyl)(3-hydroxyphenyl)methyl]-benzoyl}-4-piperidinylidene)acetic acid] | 7.4 nM | 0% 10 mg/kg IV | 1.35 nM | 0.63 nM |
| C=CCN1C[C@H](C)N([C@@H](c2cccc(O)c2)c2cccc(C(=O)N3CCC(NCc4ccc(C(=O)O)cc4)CC3)c2)C[C@H]1C [Example 140, 4-[(1-{3-[(R)-((2S,5R)-4-Allyl-2,5-dimethyl-piperazin-1-yl)-(3-hydroxy-phenyl)-methyl]-benzoyl}-piperidin-4-ylamino)-methyl]-benzoic acid] | 4.6 nM | 0% 10 mg/kg IV | 6.74 nM | 1.2 nM |
| C=CCN1C[C@H](C)N([C@@H](c2cccc(O)c2)c2cccc(C(=O)N3CCC(NCCCC(=O)O)CC3)c2)C[C@H]1C [Example 142, 4-(1-{3-[(R)-((2S,5R)-4-Allyl-2,5-dimethyl-piperazin-1-yl)-(3-hydroxy-phenyl)-methyl]-benzoyl}-piperidin-4-ylamino)-butyric acid] | 8.7 nM | 0% 10 mg/kg IV | 12.5 nM | 1.7 nM |
| C=CCN1C[C@H](C)N([C@@H](c2cccc(O)c2)c2cccc(C(=O)N3CCC[C@H]3C(=O)OC)c2)C[C@H]1C [Example 143, 1-{3-[(R)-((2S,5R)-4-Allyl-2,5-dimethyl-piperazin-1-yl)-(3-hydroxy-phenyl)-methyl]-benzoyl}-pyrrolidine-2-carboxylic acid (S)-methyl ester] | 0.5 nM | 10% 10 mg/kg IV | 1.79 nM | 1.5 nM |
